The structures appear in SMILES notation.

Results on 14 compounds are retold here after patent US10106556B2, “Heterocyclic compound” (TAKEDA PHARMACEUTICAL COMPANY LIMITED, priority 2015, dated 2018).

The experiment concerns the target T1, His-hMAGL (recombinant polyhistidine tagged human MAGL protein) (Homo sapiens, UniProt Q99685).
T1 construct: made in house; host or cells: E. coli BL21(DE3)
T1 sequence (Q99685 1-303): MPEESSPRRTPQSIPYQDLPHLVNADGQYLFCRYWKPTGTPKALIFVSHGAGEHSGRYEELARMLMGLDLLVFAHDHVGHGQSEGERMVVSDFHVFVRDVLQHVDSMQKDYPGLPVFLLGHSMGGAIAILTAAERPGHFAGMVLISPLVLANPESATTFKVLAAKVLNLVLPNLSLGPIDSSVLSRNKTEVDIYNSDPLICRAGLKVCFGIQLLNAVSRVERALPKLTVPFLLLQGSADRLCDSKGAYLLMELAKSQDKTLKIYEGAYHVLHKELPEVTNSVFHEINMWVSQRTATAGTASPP
Briefly: Measurement of MAGL inhibitory activity (arachidonic acid production from 2-arachidonylglycerol, RapidFire-mass spectrometry). The format is biochemical. The settings on record: MAGL inhibitory rate at 10 μM test compound; 60 min preincubation with His-hMAGL, 2-arachidonylglycerol substrate, 10 min reaction at room temperature. Summed up:
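Inhibition (%) was derived from arachidonic acid levels relative to enzyme-free and compound-free groups. Product was measured by online C4 solid-phase extraction and triple-quadrupole MS in negative SRM mode, corrected by arachidonic acid-d8 (3 μM in the acetonitrile added). Substrate was 2-arachidonylglycerol; enzyme was His-tagged recombinant human MAGL.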
The term inhibition denotes the change of the read-out against control, counted positive when it falls. For the compound `CC1(C)Cc2cccc(OCC3CN(C(=O)c4cc5c(cc4F)OCC(=O)N5)C3)c2O1` [Example 103, 6-((3-(((2,2-dimethyl-2,3-dihydro-1-benzofuran-7-yl)oxy)methyl)azetidin-1-yl)carbonyl)-7-fluoro-2H-1,4-benzoxazin-3(4H)-one], the inhibition at 10 µM is 102%.
For `O=C1COc2cc(F)c(C(=O)N3CC(COc4ccc5scnc5c4)C3)cc2N1` [Example 104, 6-((3-((1,3-benzothiazol-5-yloxy)methyl)azetidin-1-yl)carbonyl)-7-fluoro-2H-1,4-benzoxazin-3(4H)-one] the value was 100%.
For `O=C1COc2cc(F)c(C(=O)N3CC(COc4cccc5scnc45)C3)cc2N1` [Example 105, 6-((3-((1,3-benzothiazol-4-yloxy)methyl)azetidin-1-yl)carbonyl)-7-fluoro-2H-1,4-benzoxazin-3(4H)-one] the value was 97%; for `O=C1COc2cc(F)c(C(=O)N3CC(COc4cccc5ocnc45)C3)cc2N1` [Example 106, 6-((3-((1,3-benzoxazol-4-yloxy)methyl)azetidin-1-yl)carbonyl)-7-fluoro-2H-1,4-benzoxazin-3(4H)-one], 101%.
The same measure for `O=C1COc2cc(F)c(C(=O)N3CC(COc4cccc5[nH]ncc45)C3)cc2N1` [Example 107, 7-fluoro-6-((3-((1H-indazol-4-yloxy)methyl)azetidin-1-yl)carbonyl)-2H-1,4-benzoxazin-3(4H)-one]: 101%; for `O=C1COc2cc(F)c(C(=O)N3CC(COc4ccc(-c5ccccc5)cc4)C3)cc2N1` [Example 108, 6-((3-((biphenyl-4-yloxy)methyl)azetidin-1-yl)carbonyl)-7-fluoro-2H-1,4-benzoxazin-3(4H)-one]: 99%; for `O=C1COc2cc(F)c(C(=O)N3CC(COc4ccccc4-c4ccccc4)C3)cc2N1` [Example 109, 6-((3-((biphenyl-2-yloxy)methyl)azetidin-1-yl)carbonyl)-7-fluoro-2H-1,4-benzoxazin-3(4H)-one]: 103%.
For `O=C1COc2cc(F)c(C(=O)N3CC(COc4cccc(-c5ccccc5)c4)C3)cc2N1` [Example 110, 6-((3-((biphenyl-3-yloxy)methyl)azetidin-1-yl)carbonyl)-7-fluoro-2H-1,4-benzoxazin-3(4H)-one], the inhibition at 10 µM was 97%.
For `O=C1COc2cc(F)c(C(=O)N3CC(COc4ccc(Cl)cc4)C3)cc2N1` [Example 111, 6-((3-((4-chlorophenoxy)methyl)azetidin-1-yl)carbonyl)-7-fluoro-2H-1,4-benzoxazin-3(4H)-one] the value was 98%; for `O=C1COc2cc(F)c(C(=O)N3CC(COc4cccc(Cl)c4)C3)cc2N1` [Example 112, 6-((3-((3-chlorophenoxy)methyl)azetidin-1-yl)carbonyl)-7-fluoro-2H-1,4-benzoxazin-3(4H)-one], 101%.
For `O=C1COc2cc(F)c(C(=O)N3CC(COc4ccccc4Cl)C3)cc2N1` [Example 113, 6-((3-((2-chlorophenoxy)methyl)azetidin-1-yl)carbonyl)-7-fluoro-2H-1,4-benzoxazin-3(4H)-one] the value was 101%; for `O=C1COc2cc(F)c(C(=O)N3CC(COc4ccc(OCC(F)(F)F)cc4)C3)cc2N1` [Example 114, 7-fluoro-6-((3-((4-(2,2,2-trifluoroethoxy)phenoxy)methyl)azetidin-1-yl)carbonyl)-2H-1,4-benzoxazin-3(4H)-one], 99%.
The same measure for `COc1cc(Cl)ccc1OCC1CN(C(=O)c2cc3c(cc2F)OCC(=O)N3)C1` [Example 115, 6-((3-((4-chloro-2-methoxyphenoxy)methyl)azetidin-1-yl)carbonyl)-7-fluoro-2H-1,4-benzoxazin-3(4H)-one]: 103%; for `O=C1COc2cc(F)c(C(=O)N3CC(COc4ccc(C(F)(F)F)cc4Cl)C3)cc2N1` [Example 116, 6-((3-((2-chloro-4-(trifluoromethyl)phenoxy)methyl)azetidin-1-yl)carbonyl)-7-fluoro-2H-1,4-benzoxazin-3(4H)-one]: 103%.
